≈ marks a conversion by molar mass, not a printed value.
Tests used:
[1] = system: Klebsiella aerogenes; assay: Antibacterial activity of compound was determined against Klebsiella aerogenes 1976E; format: functional
[2] = system: Klebsiella pneumoniae; assay: Antibacterial activity of compound was determined against Klebsiella pneumoniae 2011E; format: functional
[3] = system: Salmonella typhimurium; assay: Antibacterial activity of compound was determined against Salmonella Typhimurium 14028; format: functional, Salmonella enterica subsp. enterica serovar Typhimurium; conditions: Salmonella enterica
[4] = system: Staphylococcus epidermidis; assay: Antibacterial activity of compound was determined against […] 887E; format: functional
[5] = system: Staphylococcus aureus; assay: Antibacterial activity of compound was determined against Staphylococcus aureus 1538p; format: functional
[6] = system: Pseudomonas aeruginosa; assay: Antibacterial activity of compound was determined against Pseudomonas aeruginosa 1912; format: functional
[7] = system: Escherichia coli; assay: Antibacterial activity of compound was determined against Escherichia coli JM109; format: functional
[8] = system: Bacillus cereus; assay: Antibacterial activity of compound was determined against Bacillus cereus ATCC 27348; format: functional

SMILES | MIC [1] [µg/mL] | MIC [2] [µg/mL] | MIC [3] [µg/mL] | MIC [4] [µg/mL] | MIC [5] [µg/mL] | MIC [6] [µg/mL] | MIC [7] [µg/mL] | MIC [8] [µg/mL]
CSCC[C@H](N)C(=O)NC[C@H]1OC(n2cnc3c(N)ncnc32)[C@H](O)[C@@H]1O (stereo not given in full) | > 64 | > 64 | > 64 | > 64 | > 64 | > 64 | 1 (≈ 2.52 µM) | > 64
CSCC[C@H](N)C(=O)NO | 4 (≈ 24.4 µM) | > 64 | 8 (≈ 48.7 µM) | > 64 | > 64 | > 64 | 0.5 (≈ 3.04 µM) | > 64
CSCC[C@H](N)C(=O)OC[C@H]1O[C@@H](n2cnc3c(N)ncnc32)[C@H](O)[C@@H]1O | > 64 | > 64 | > 64 | > 64 | > 64 | > 64 | 0.5 (≈ 1.25 µM) | 32 (≈ 80.3 µM)
CSCC[C@H](N)C(=O)NOC[C@H]1OC(n2cnc3c(N)ncnc32)[C@H](O)[C@@H]1O (stereo not given in full) | > 64 | > 64 | > 64 | > 64 | > 64 | > 64 | 8 (≈ 19.3 µM) | > 64
CSCC[C@H](N)C(=O)N(O)C[C@H]1OC(n2cnc3c(N)ncnc32)[C@H](O)[C@@H]1O (stereo not given in full) | > 64 | > 64 | > 64 | > 64 | > 64 | > 64 | 0.5 (≈ 1.21 µM) | 8 (≈ 19.3 µM)

From ChEMBL document CHEMBL1131707, “Methionyl adenylate analogues as inhibitors of methionyl-tRNA synthetase” (1999)
